This note sets out measurements from patent US9512481B2, “Polymorphisms in the PDE3A gene” (The Regents of the University of Colorado, a body corporate, priority 2009, dated 2016).

For one assay, the system named is PDE3A promoter. The experiment in a line: PDE3A Ins or Del promoter-luciferase constructs transfected into NRVMs. Type of assay: cell-based, rat. The note with it: for promoter response: Del construct with deletion of the CREB binding site (CRE) at −1070, NRVMs; for promoter (transcriptional) activity: NRVMs.
The subject of assay [1] is Evi-1 transcription factor mRNA. The experiment in a line: Evi-1 mRNA expression in explanted left ventricular samples from heart failure patients treated with enoximone. Particulars: explanted LV samples from HF patients treated with enoximone; compared to non-failing, no enoximone. Format: in vivo, human.
The test system of a further assay is PDE3A mRNA. The experiment in a line: PDE3A mRNA abundance in LVs explanted from end-stage HF patients, by PDE3A promoter Ins/Del genotype. Format: in vivo, human.

For `CCCC(=O)Nc1ncnc2c1ncn2[C@@H]1O[C@@H]2COP(=O)(O)O[C@H]2[C@H]1OC(=O)CCC` [dbcAMP], in the assay on PDE3A promoter, the promoter response entry is recorded as “abolishes the promoter response”.
Turning to `Nc1ncnc2c1ncn2[C@@H]1O[C@@H]2COP(=O)(O)O[C@H]2[C@H]1O` [cAMP, cyclic AMP], the “induction of Evi-1” value in the assay on Evi-1 is listed as 16 fold.
Turning to `CSc1ccc(C(=O)c2[nH]c(=O)[nH]c2C)cc1` [enoximone], in assay [1], the “mRNA expression of Evi-1” value is listed as “increased”. Besides, in the assay on PDE3A mRNA (Del carriers (homozygous or heterozygous for PDE3A Del, n=9) treated with enoximone, compared to Del patients not receiving enoximone (n=19), p<0.001), the “PDE3A mRNA abundance” value was 2.1±0.3 fold. The compound also registered a PDE3A gene expression in the assay on PDE3A mRNA (patients homozygous for the Ins (Ins/Ins) treated with enoximone, p=0.7) of 1.1±0.3 fold. Moreover, in the assay on PDE3A promoter, the promoter response result is on record as “abolishes the promoter response”.
`CC(C)NCC(O)c1ccc(O)c(O)c1` (centres unmarked) [isoproterenol]: the “promoter (transcriptional) activity” value is given as “increased promoter activity” with PDE3A promoter (Del PDE3A promoter-luciferase construct (lacks the 29 nucleotide sequence)) and “does not go up” in the assay with PDE3A promoter (Ins PDE3A promoter-luciferase construct (29 nucleotide sequence present)).
